{"source": "patent US8889729B2", "about": "“Compositions for treating amyloid associated diseases” (Tel Aviv University Future Technology Development L.P., priority 2004, dated 2014)", "key": {"Aβ1-40": {"molecular_target": "T1, Aβ1-40 (Homo sapiens, UniProt P05067)", "T1 construct": "Synthetic lyophilized β-amyloid polypeptides (Aβ 1-40 and Aβ 1-42, >98% pure); purchased Bachem (Bubendorf, Switzerland); host or cells: chemical synthesis", "T1 sequence (P05067 672-711 limits assumed)": "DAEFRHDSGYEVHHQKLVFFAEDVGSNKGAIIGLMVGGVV", "assay": "AFM structural analysis of Aβ1-40 samples from kinetic studies", "conditions": "50 μM compound, once control samples reached the polymerization phase", "protocol": "Atomic force microscopy (AFM): For each experiment, a 60 μl sample of was taken for AFM measurement at three different time points correlating to the amyloidogenic kinetic curve, as detailed hereinafter. The sample was centrifuged for 1.5 minutes at 13,000 rpm and 40 μl of the supernatant was removed. The remaining 20 μl droplet of the solution was re-suspended and deposited onto freshly cleaved mica for 1.5 minutes. The substrate was washed with 160 μl of double-distilled H2O to reduce background and to eliminate salts and buffer contaminants. The mica samples were then dried at room temperature. At least four regions of the mica surface were examined to ensure that similar structures existed throughout the sample. AFM images were obtained using a Veeco NanoScope IV MultiMode AFM (Digital Instruments, Santa Barbara, USA) in tapping mode. Measurements were performed at a resonance frequency of about 321.4 kHz.\nAdditional structural analyses were performed using AFM measurements, performed with Aβ1-40 samples taken from the kinetic studies once the control samples reached the different fibrillogenesis phase."}, "PC12 cells": {"tested_on": "PC12 cells", "assay": "Aβ1-40 cytotoxicity on PC12 cells, MTT assay", "assay_type": "cell-based", "conditions": "both assays (T=0 and after 7 days incubation)", "protocol": "Cell culture: PC12 pheochromocytoma cell line, a cultured benign tumor of the sympathetic nervous system, was routinely grown in Dulbecco's Modified Eagle Medium (DMEM) supplemented with 8% (v/v) fetal calf serum, 8% (v/v) horse serum, 100 U/ml penicillin, 100 U/ml streptomycin, and 2 mM L-glutamine (Biological industries, Israel). The cells were maintained at 37° C. in a humidified atmosphere containing 5% CO2. Cell cytotoxicity assay: PC-12 cells (3×10^5 cells/ml) were cultured in 96-well microplates (100 μl/well) and were incubated overnight at 37° C. The wells were then washed once with serum free-DMEM, so as to exclude the effect of the serum. To each well 100 μl of 5 μM Aβ1-40 (prepared from a stock solution of 0.5 mM in 10 mM NaOH) and an indole derivative at various concentrations were added. Each determination was made in quadruplicate. Following incubation for 24 hours at 37° C., cell viability was evaluated using the MTT assay (as described in Hansen et al. (1989) J. Immunol. Methods 119, 203-210). The effect of the indole derivatives on the formation of cytotoxic amyloid assemblies was determined by measuring the toxicity of the formed Aβ on pheochromocytoma cell line cultures (PC12) in the presence and absence of the indole derivatives. […] Cell viability was determined after 24 hours using the MTT assay. Cells incubated with only 5 μM Aβ1-40 served as the control."}}, "data": [{"smiles": "OCc1c[nH]c2ccccc12", "note": "[indole-3-carbinol]", "values": [{"measurement": "amyloid fibril formation by AFM", "setting": "Aβ1-40", "result": "small amounts of amyloid fibrils in the form of long wires"}, {"measurement": "inhibitory effect on Aβ1-40 cytotoxicity", "setting": "PC12 cells", "result": "No significant inhibition of cytotoxicity"}]}]}
